Source: patent publication US11491184B2, “Liquids rich in noble gas and methods of their preparation and use” (THE BOARD OF REGENTS OF THE UNIVERSITY OF TEXAS SYSTEM, priority 2013, dated 2022)
≈ marks a conversion by molar mass, not a printed value.

Columns and labels:
[1] = cited from earlier work; for concentration dissolved in water: standard temperature and pressure
[2] = chronic oral administration; cited from earlier work
[3] = tested on: apolipoprotein-E (Apo E) knockout (KO) mice; assay: Echocardiographic measurements after oral Xe-rich solution, Apo E KO mice on high fat diet; type: in vivo
Source text: (§1) All animal studies were approved by the Animal Welfare Committee at The University of Texas Health Science Center at Houston. C57BL/6J wild type (WT) and apolipoprotein-E (Apo E) knockout (KO) mice were purchased from Jackson Laboratory (Bar Harbor, Me., USA), see, e.g., Meir et al., 2004, incorporated herein by reference. The control WT mice used were C57BL/6J, which share the same genetic background with the Apo E KO mice. Six- to eight-month-old male WT and KO mice were fed control or high fat diet (Harlan Laboratories, USA) and administered control or Xe-rich solution (200 μl, once a day) and water drink for 6 weeks, since the Apo E KO mice type fed a high fat diet develop atherosclerotic lesions.
(§2) Baseline measurements by echocardiography were obtained before feeding with the high fat diet. Cardiac morphology and function were assessed by serial M-mode echocardiography using a Vevo 770 Imaging System (VisualSonics Inc., Ontario, Canada) equipped with a 30 MHz microprobe. M-mode ventricular measurements were taken at 6-weeks after the feeding. Electrocardiographic (ECG) data was obtained. Echo data (HR, heart rate; LVID, left ventricular internal dimension; IVS, intra-ventricular septum; LVPW, left ventricular posterior wall; FS, fractional shortening; SV, stroke volume; EF, ejection fraction; CO, cardiac output; LV Vol, LV volume; LV mass corrected) were analyzed with the analysis software (VisualSonics Inc., Ontario, Canada).
(§3) Animals were divided into 5 groups (see experiment setting). Echocardiography was used to assess cardiac dimensions and function at baseline, and at 6-weeks following the Xe exposure (FIGS. 1 and 2; Table 1). Cardiac size of WT and KO hearts were determined with LV mass (corrected) and normalized to body weight (mg/g) following 6-weeks of the Xe exposure (FIG. 3A).

[4] = tested on: apolipoprotein-E (Apo E) knockout (KO) mice; assay: Heart weight normalized to body weight after Xe-rich solution; type: in vivo; conditions: KO6w Xe vs KO6w vehicle, 6 weeks
Source text: as §1, §3

[5] = tested on: apolipoprotein-E (Apo E) knockout (KO) mice; assay: Electrocardiographic (ECG) data after Xe-rich solution; type: in vivo; conditions: KO6w treated with Xe, 6-weeks time point
Source text: as §1
as §2, with “M-mode ventricular measurements were taken at 6-weeks after the feeding. Electrocardiographic (ECG) data was obtained.” left out

[6] = tested on: Brain-derived Neurotrophic Factor (BDNF); assay: BDNF Sandwich ELISA of heart and brain after Xe-rich solution; type: in vivo, mice; conditions: KO6w Xe vs vehicle, 6 weeks
Source text: All animal studies were approved by the Animal Welfare Committee at The University of Texas Health Science Center at Houston. C57BL/6J wild type (WT) and apolipoprotein-E (Apo E) knockout (KO) mice were purchased from Jackson Laboratory (Bar Harbor, Me., USA), see, e.g., Meir et al., 2004, incorporated herein by reference. The control WT mice used were C57BL/6J, which share the same genetic background with the Apo E KO mice. […]
Fresh frozen heart and brain tissues were slightly thawed on crushed ice to allow dissection of the hearts and brains. […] The protein concentration was determined using a Bradford Protein Assay (Bio-Rad, Calif., USA).
Except for the heart and brain extracts, the samples (such as plasma) were thawed and clarified at 12,000 rpm for 10 min at 4° C. prior to ELISA assays for β-amyloid per the manufacturer's instructions. BDNF and β-amyloid peptide (Aβ1-40) content were determined by using BDNF Sandwich ELISA Kit (Millipore Corporation, MA, USA) and a Mouse/Rat Amyloid β (1-40) High Specific ELISA Assay Kit (IBLAmerican, Minneapolis, Minn., USA). […] was measured by using SpectroMax Microplate reader (Bio-Tek Instruments) at 450 nm. All samples were analyzed in duplicate.

[7] = Measurement of Xe dissolved / encapsulated in water and hp-beta-CD; type: physicochemical; conditions: 3 atm
Experimental: Xenon was enclosed into a soluble caged molecules (e.g., cyclodextrin). To remove possible residue molecules from cage, the caged molecular was baked at 40-80° C. under vacuum for overnight. To enclose xenon into caged molecules, xenon was incubated with caged molecular in a sealed vial under 2-10 atm pressure at […]. for overnight to 3 days.
Pure water was degassed under 20-80 mbar vacuum at room temperature for overnight. Xenon (99.999% Medical grade, Matheson Tri-Gas®, Houston, Tex., USA) was re-dissolved into degassed water by pressure water with 2-10 atm xenon gas at 4° C. for overnight to 3 days.
Xe-rich-water is composed of Xe directly dissolved in water and caging with hydroxypropyl-beta-cyclodextrin (hp-beta-CD) in water. […]
To measure the amount of Xe dissolved in a Xe-rich-water. […] The solution was then warmed up to 80° C. in a vial with a silicone-rubber seal (Thermo Scientific SepraSeal® (Thermo Scientific, Hudson, N.H., USA) sealed top for 2 hours. After cooling down to room temperature, a syringe with a 17 gauge needle was inserted into a vial through the silicone-rubber seal. The released Xe gas present in the top spacer formed pressure, which pushed Xe gas into the syringe. The amount of Xe released into syringe was then measured.

[8] = Stated solubility / dissolved concentration of gases and hp-beta-CD; type: physicochemical; conditions: room temperature and 1 atm
[9] = KO6w Xe vs KO6w vehicle, 6 week time point

[Ar] [Ar, Argon]
concentration dissolved in water [1]: about 55 μg/ml

CC(O)COC[C@H]1O[C@@H]2O[C@H]3[C@H](O)[C@@H](O)[C@@H](O[C@H]4[C@H](O)[C@@H](O)[C@@H](O[C@H]5[C@H](O)[C@@H](O)[C@@H](O[C@H]6[C@H](O)[C@@H](O)[C@@H](O[C@H]7[C@H](O)[C@@H](O)[C@@H](O[C@H]8[C@H](O)[C@@H](O)[C@@H](O[C@H]1[C@H](O)[C@H]2O)O[C@@H]8COCC(C)O)O[C@@H]7COCC(C)O)O[C@@H]6COCC(C)O)O[C@@H]5COCC(C)O)O[C@@H]4COCC(C)O)O[C@@H]3COCC(C)O (stereo partly drawn) [hp-beta-CD, Hydroxypropyl-beta-cyclodextrin]
Solubility [1]: 330 mg/mL (≈ 214 mM)

cyclodextrin
acceptably safe dose [2]: about 1,000 mg/kg/day

[Xe] [Xe, Xenon]
increase in LV mass (corrected) ([3]; KO6w Xe vs KO6w vehicle and KO6w control, 6 weeks, Xe-rich solution 200 μl once a day): blocked
wall thickness increase (IVS, LVPW) ([3]; KO6w Xe vs KO6w vehicle and KO6w/control, 6 weeks): significantly blocked
decrease in LV ejection fraction (EF) [3, 9]: significantly blocked
decrease in LV fractional shortening (FS) [3, 9]: significantly blocked
decrease in cardiac output (CO) [3, 9]: significantly blocked
heart rate (HR) increase, in words ([3]; KO6w given Xe, 6 weeks): blocked
heart weight normalized to body weight [4]: Decreased
ECG changes in T wave, ST segment and QRS complex (myocardial ischemia) [5]: did not occur
relative BDNF levels in heart [6]: further increased
xenon encapsulated in a hp-beta-CD cage ([7]; −80° C., 0.5 mg/ml of hp-beta-CD): 5 mL
xenon gas dissolved into 5 ml water ([7]; degassed water, pure xenon gas, 4° C., 4 hours to overnight): 6.5 mL
Xe in an oil, such as olive oil [8]: about 12 mg Xe/ml
concentration dissolved in water [1]: about 600 μg/ml
